Measurements: article PMC2990605 (British Journal of Cancer, 2010)

Test: Adverse events (CTCAEv3.0), worst grade per patient regardless of relation, and laboratory parameters
Format: in vivo
Conditions: for Alanine aminotransferase increased, CTCAE grade 5, patients / Alopecia, CTCAE grade 5, patients / Anaemia, CTCAE grade 5, patients / Anorexia, CTCAE grade 5, patients / Arthralgia, CTCAE grade 5, patients / Back pain, CTCAE grade 5, patients / Blood bilirubin, CTCAE grade 5, patients / Bronchitis, CTCAE grade 5, patients / Constipation, CTCAE grade 5, patients / Cough, CTCAE grade 5, patients / Cystitis, CTCAE grade 5, patients / Dehydration, CTCAE grade 5, patients / Diabetes mellitus, CTCAE grade 5, patients / Diarrhoea, CTCAE grade 5, patients / Dizziness, CTCAE grade 5, patients / Drug hypersensitivity, CTCAE grade 5, patients / Dry skin, CTCAE grade 5, patients / Dyspnoea, CTCAE grade 5, patients / Eosinophilic myocarditis, CTCAE grade 5, patients / Erythema, CTCAE grade 5, patients / Fatigue, CTCAE grade 5, patients / Gastric dilatation, CTCAE grade 5, patients / General physical health deterioration, CTCAE grade 5, patients / Hypercalcaemia, CTCAE grade 5, patients / Hyperglycaemia, CTCAE grade 5, patients / Hyperhidrosis, CTCAE grade 5, patients / Leukopenia, CTCAE grade 5, patients / Malaise, CTCAE grade 5, patients / Mucosal inflammation, CTCAE grade 5, patients / Myalgia, CTCAE grade 5, patients / Nasopharyngitis, CTCAE grade 5, patients / Nausea, CTCAE grade 5, patients / Neutropenia, CTCAE grade 5, patients / Oedema peripheral, CTCAE grade 5, patients / Oedema, CTCAE grade 5, patients / Peripheral sensory neuropathy, CTCAE grade 5, patients / Pollakiuria, CTCAE grade 5, patients / Pruritus, CTCAE grade 5, patients / Pulmonary embolism, CTCAE grade 5, patients / Pyrexia, CTCAE grade 5, patients / Rash, CTCAE grade 5, patients / Spinal cord compression, CTCAE grade 5, patients / Tumour pain, CTCAE grade 5, patients / Urinary tract infection, CTCAE grade 5, patients / Vomiting, CTCAE grade 5, patients / γ-glutamyltransferase increased, CTCAE grade 5, patients: with paclitaxel
Protocol: Toxicity was evaluated according to common toxicity criteria for adverse events (CTCAEv3.0). The MTD was defined as the dose level(s) at which at least two out of six patients developed DLT.
Toxicity assessment, haematology and clinical biochemistry were performed at baseline and weekly during the study. Physical and ECOG performance status were recorded at baseline and before the next cycle.

CC(C)C[C@@H](C(=O)N[C@H](C(=O)OC1CCCC1)c1ccccc1)[C@H](O)C(=O)NO [tosedostat]
Alanine aminotransferase increased, CTCAE grade 5, patients (all cycles): 0 | Alopecia, CTCAE grade 5, patients (all cycles): 0 | Anaemia, CTCAE grade 5, patients (all cycles): 0 | Anorexia, CTCAE grade 5, patients (all cycles): 0 | Arthralgia, CTCAE grade 5, patients (all cycles): 0 | Back pain, CTCAE grade 5, patients (all cycles): 0 | Blood bilirubin, CTCAE grade 5, patients (all cycles): 0 | Bronchitis, CTCAE grade 5, patients (all cycles): 0 | Constipation, CTCAE grade 5, patients (all cycles): 0 | Cough, CTCAE grade 5, patients (all cycles): 0 | Cystitis, CTCAE grade 5, patients (all cycles): 0 | Dehydration, CTCAE grade 5, patients (all cycles): 0 | Diabetes mellitus, CTCAE grade 5, patients (all cycles): 0 | Diarrhoea, CTCAE grade 5, patients (all cycles): 0 | Dizziness, CTCAE grade 5, patients (all cycles): 0 | Drug hypersensitivity, CTCAE grade 5, patients (all cycles): 0 | Dry skin, CTCAE grade 5, patients (all cycles): 0 | Dyspnoea, CTCAE grade 5, patients (all cycles): 0 | Eosinophilic myocarditis, CTCAE grade 5, patients (all cycles): 1 | Erythema, CTCAE grade 5, patients (all cycles): 0 | Fatigue, CTCAE grade 5, patients (all cycles): 0 | Gastric dilatation, CTCAE grade 5, patients (all cycles): 0 | General physical health deterioration, CTCAE grade 5, patients (all cycles): 0 | Hypercalcaemia, CTCAE grade 5, patients (all cycles): 0 | Hyperglycaemia, CTCAE grade 5, patients (all cycles): 0 | Hyperhidrosis, CTCAE grade 5, patients (all cycles): 0 | Leukopenia, CTCAE grade 5, patients (all cycles): 0 | Malaise, CTCAE grade 5, patients (all cycles): 0 | Mucosal inflammation, CTCAE grade 5, patients (all cycles): 0 | Myalgia, CTCAE grade 5, patients (all cycles): 0 | Nasopharyngitis, CTCAE grade 5, patients (all cycles): 0 | Nausea, CTCAE grade 5, patients (all cycles): 0 | Neutropenia, CTCAE grade 5, patients (all cycles): 0 | Oedema peripheral, CTCAE grade 5, patients (all cycles): 0 | Oedema, CTCAE grade 5, patients (all cycles): 0 | Peripheral sensory neuropathy, CTCAE grade 5, patients (all cycles): 0 | Pollakiuria, CTCAE grade 5, patients (all cycles): 0 | Pruritus, CTCAE grade 5, patients (all cycles): 0 | Pulmonary embolism, CTCAE grade 5, patients (all cycles): 0 | Pyrexia, CTCAE grade 5, patients (all cycles): 0 | Rash, CTCAE grade 5, patients (all cycles): 0 | Spinal cord compression, CTCAE grade 5, patients (all cycles): 0 | Tumour pain, CTCAE grade 5, patients (all cycles): 0 | Urinary tract infection, CTCAE grade 5, patients (all cycles): 0 | Vomiting, CTCAE grade 5, patients (all cycles): 0 | γ-glutamyltransferase increased, CTCAE grade 5, patients (all cycles): 0 | Alanine aminotransferase increased, CTCAE grade 5, patients (first 21 days): 0 | Alopecia, CTCAE grade 5, patients (first 21 days): 0 | Anaemia, CTCAE grade 5, patients (first 21 days): 0 | Anorexia, CTCAE grade 5, patients (first 21 days): 0 | Arthralgia, CTCAE grade 5, patients (first 21 days): 0 | Back pain, CTCAE grade 5, patients (first 21 days): 0 | Blood bilirubin, CTCAE grade 5, patients (first 21 days): 0 | Bronchitis, CTCAE grade 5, patients (first 21 days): 0 | Constipation, CTCAE grade 5, patients (first 21 days): 0 | Cough, CTCAE grade 5, patients (first 21 days): 0 | Cystitis, CTCAE grade 5, patients (first 21 days): 0 | Dehydration, CTCAE grade 5, patients (first 21 days): 0 | Diabetes mellitus, CTCAE grade 5, patients (first 21 days): 0 | Diarrhoea, CTCAE grade 5, patients (first 21 days): 0 | Dizziness, CTCAE grade 5, patients (first 21 days): 0 | Drug hypersensitivity, CTCAE grade 5, patients (first 21 days): 0 | Dry skin, CTCAE grade 5, patients (first 21 days): 0 | Dyspnoea, CTCAE grade 5, patients (first 21 days): 0 | Eosinophilic myocarditis, CTCAE grade 5, patients (first 21 days): 0 | Erythema, CTCAE grade 5, patients (first 21 days): 0 | Fatigue, CTCAE grade 5, patients (first 21 days): 0 | Gastric dilatation, CTCAE grade 5, patients (first 21 days): 0 | General physical health deterioration, CTCAE grade 5, patients (first 21 days): 0 | Hypercalcaemia, CTCAE grade 5, patients (first 21 days): 0 | Hyperglycaemia, CTCAE grade 5, patients (first 21 days): 0 | Hyperhidrosis, CTCAE grade 5, patients (first 21 days): 0 | Leukopenia, CTCAE grade 5, patients (first 21 days): 0 | Malaise, CTCAE grade 5, patients (first 21 days): 0 | Mucosal inflammation, CTCAE grade 5, patients (first 21 days): 0 | Myalgia, CTCAE grade 5, patients (first 21 days): 0 | Nasopharyngitis, CTCAE grade 5, patients (first 21 days): 0 | Nausea, CTCAE grade 5, patients (first 21 days): 0 | Neutropenia, CTCAE grade 5, patients (first 21 days): 0 | Oedema peripheral, CTCAE grade 5, patients (first 21 days): 0 | Oedema, CTCAE grade 5, patients (first 21 days): 0 | Peripheral sensory neuropathy, CTCAE grade 5, patients (first 21 days): 0 | Pollakiuria, CTCAE grade 5, patients (first 21 days): 0 | Pruritus, CTCAE grade 5, patients (first 21 days): 0 | Pulmonary embolism, CTCAE grade 5, patients (first 21 days): 0 | Pyrexia, CTCAE grade 5, patients (first 21 days): 0 | Rash, CTCAE grade 5, patients (first 21 days): 0 | Spinal cord compression, CTCAE grade 5, patients (first 21 days): 0 | Tumour pain, CTCAE grade 5, patients (first 21 days): 0 | Urinary tract infection, CTCAE grade 5, patients (first 21 days): 0 | Vomiting, CTCAE grade 5, patients (first 21 days): 0 | γ-glutamyltransferase increased, CTCAE grade 5, patients (first 21 days): 0 | Alanine aminotransferase increased, CTCAE grade 1, patients (human, in vivo): 1 | Alanine aminotransferase increased, CTCAE grade 2, patients (human, in vivo): 1 | Alanine aminotransferase increased, CTCAE grade 3, patients (human, in vivo): 1 | Alanine aminotransferase increased, CTCAE grade 4, patients (human, in vivo): 0 | Alanine aminotransferase increased, patients with events, % (human, in vivo): 14% | Alopecia, CTCAE grade 2, patients (human, in vivo): 20 | Alopecia, CTCAE grade 3, patients (human, in vivo): 0 | Alopecia, CTCAE grade 4, patients (human, in vivo): 0 | Alopecia, patients with events, % (human, in vivo): 95% | Anaemia, CTCAE grade 1, patients (human, in vivo): 1 | Anaemia, CTCAE grade 4, patients (human, in vivo): 0 | Anorexia, CTCAE grade 1, patients (human, in vivo): 6 | Anorexia, CTCAE grade 2, patients (human, in vivo): 2 | Anorexia, CTCAE grade 3, patients (human, in vivo): 2 | Anorexia, CTCAE grade 4, patients (human, in vivo): 0 | Anorexia, patients with events, % (human, in vivo): 45% | Arthralgia, CTCAE grade 1, patients (human, in vivo): 5 | Arthralgia, CTCAE grade 2, patients (human, in vivo): 0 | Arthralgia, CTCAE grade 3, patients (human, in vivo): 0 | Arthralgia, CTCAE grade 4, patients (human, in vivo): 0 | Arthralgia, patients with events, % (human, in vivo): 23% | Back pain, CTCAE grade 1, patients (human, in vivo): 3 | Back pain, CTCAE grade 2, patients (human, in vivo): 2 | Back pain, CTCAE grade 3, patients (human, in vivo): 0 | Back pain, CTCAE grade 4, patients (human, in vivo): 0 | Back pain, patients with events, % (human, in vivo): 23% | Blood bilirubin, CTCAE grade 1, patients (human, in vivo): 0 | Blood bilirubin, CTCAE grade 2, patients (human, in vivo): 0 | Blood bilirubin, CTCAE grade 3, patients (human, in vivo): 1 | Blood bilirubin, CTCAE grade 4, patients (human, in vivo): 0 | Blood bilirubin, patients with events, % (human, in vivo): 5% | Bronchitis, CTCAE grade 1, patients (human, in vivo): 0 | Bronchitis, CTCAE grade 2, patients (human, in vivo): 0 | Bronchitis, CTCAE grade 3, patients (human, in vivo): 1 | Bronchitis, CTCAE grade 4, patients (human, in vivo): 0 | Bronchitis, patients with events, % (human, in vivo): 5% | Constipation, CTCAE grade 1, patients (human, in vivo): 3 | Constipation, CTCAE grade 2, patients (human, in vivo): 3 | Constipation, CTCAE grade 3, patients (human, in vivo): 0 | Constipation, CTCAE grade 4, patients (human, in vivo): 0 | Constipation, patients with events, % (human, in vivo): 27% | Cough, CTCAE grade 1, patients (human, in vivo): 8 | Cough, CTCAE grade 2, patients (human, in vivo): 1
